# US12097192B2 (Corcept Therapeutics Incorporated, priority 2019, dated 2024)
# Legend:
# progesterone receptor = target: T1, progesterone receptor (Homo sapiens, UniProt P06401); test: Progesterone receptor affinity / binding
# T1 sequence (P06401 1-933): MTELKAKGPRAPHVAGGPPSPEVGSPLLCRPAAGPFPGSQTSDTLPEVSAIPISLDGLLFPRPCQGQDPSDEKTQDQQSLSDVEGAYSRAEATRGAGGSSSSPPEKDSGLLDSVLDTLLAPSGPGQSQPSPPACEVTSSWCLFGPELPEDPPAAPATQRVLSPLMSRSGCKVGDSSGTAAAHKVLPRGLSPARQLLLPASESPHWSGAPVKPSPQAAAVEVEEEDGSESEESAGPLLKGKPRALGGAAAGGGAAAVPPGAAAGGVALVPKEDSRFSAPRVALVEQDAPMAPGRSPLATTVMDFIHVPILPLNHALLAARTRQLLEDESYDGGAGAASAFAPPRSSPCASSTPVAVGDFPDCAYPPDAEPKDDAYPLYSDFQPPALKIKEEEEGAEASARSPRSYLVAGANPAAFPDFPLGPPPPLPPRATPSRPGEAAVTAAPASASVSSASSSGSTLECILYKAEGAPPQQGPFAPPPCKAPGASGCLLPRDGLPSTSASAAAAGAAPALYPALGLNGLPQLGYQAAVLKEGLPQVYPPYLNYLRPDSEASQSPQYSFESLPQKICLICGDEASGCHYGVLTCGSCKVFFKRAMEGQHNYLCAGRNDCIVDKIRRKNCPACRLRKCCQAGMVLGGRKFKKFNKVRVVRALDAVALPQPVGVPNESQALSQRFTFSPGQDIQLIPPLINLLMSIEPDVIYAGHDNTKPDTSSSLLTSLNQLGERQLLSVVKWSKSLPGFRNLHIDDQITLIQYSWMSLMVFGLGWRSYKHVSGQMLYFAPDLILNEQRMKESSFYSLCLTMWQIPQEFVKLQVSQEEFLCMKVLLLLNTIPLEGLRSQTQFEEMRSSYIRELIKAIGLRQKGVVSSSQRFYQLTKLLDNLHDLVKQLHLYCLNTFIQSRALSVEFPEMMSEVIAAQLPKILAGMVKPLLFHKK
# [1] = test system: Cushing's syndrome patients; test: Cushing's syndrome patient study: liver function tests (ALT, AST); format: in vivo, human; conditions: All Subjects, mITT
# Excerpt: All patients gave informed consent before participating in any study-related procedures. […] The study protocol called for patient visits to the study site at screening, on Day 1 (baseline), Weeks 2, 4, 6, 8, 10, and 12, and after a 4-week follow-up period for Group 1. For Group 2, the protocol called for patient visits to the study site at screening, on Day 1 (baseline), Weeks 2, 4, 6, 8, 10, 12, 14, and 16, and after a 4-week follow-up period. Patient dosing will be done at home, except on days of study visits. […] The safety protocol also included assessments by physical examination findings, vital signs, ECG results, pregnancy tests, clinical laboratory test results (hematology and chemistry panels), adverse events (AEs), and concomitant medications. […] It ignores noncompliance, protocol deviations, withdrawal, and anything that happens after randomization. In contrast, per-protocol (PP) analysis refers to inclusion in the analysis of only those patients who strictly adhered to the protocol. The PP analysis provides an estimate of the true efficacy of an intervention, i.e., among those who completed the treatment as planned.
# [2] = Relacorilant in healthy subjects (human volunteers): tolerability and steady state; format: in vivo
# [3] = test system: Cushing's syndrome patients; test: Cushing's syndrome patient study: bone markers; format: in vivo, human; parameters: Serμm Bone Alkaline Phosphatase mean change from Baseline to Last Observed: unit not given here; conditions: All Subjects
# Excerpt: All patients gave informed consent before participating in any study-related procedures. […] The study protocol called for patient visits to the study site at screening, on Day 1 (baseline), Weeks 2, 4, 6, 8, 10, and 12, and after a 4-week follow-up period for Group 1. For Group 2, the protocol called for patient visits to the study site at screening, on Day 1 (baseline), Weeks 2, 4, 6, 8, 10, 12, 14, and 16, and after a 4-week follow-up period. Patient dosing will be done at home, except on days of study visits. […] It ignores noncompliance, protocol deviations, withdrawal, and anything that happens after randomization. In contrast, per-protocol (PP) analysis refers to inclusion in the analysis of only those patients who strictly adhered to the protocol. The PP analysis provides an estimate of the true efficacy of an intervention, i.e., among those who completed the treatment as planned.
# [4] = test system: Cushing's syndrome patients; test: Phase 2 CORT125134-451 study in Cushing syndrome: overall clinical efficacy; format: in vivo, human
# Procedure: All patients gave informed consent before participating in any study-related procedures. […] Response criteria for hyperglycemia were changes from baseline in glucose tolerance as measured by: ≥0.5% decrease in HbA1c, normalization or ≥50 mg/dL decrease in 2-hr OGTT glucose, or decrease in total daily insulin (≥25%) or sulfonylurea dose (≥50%). Response criteria for hypertension (HTN) was a ≥5 mm Hg decrease in mean systolic and/or diastolic blood pressure (SBP/DBP). […] The efficacy of the drug in Cushing syndrome was assessed based on the improvement of morbidities associated with excess cortisol activity, e.g. hyperglycaemia, hypertension, cognitive dysfunction, depression, poor quality of life, hypercoagulopathy and obesity. (A morbidity associated with excess cortisol, e.g., associated with hypercortisolemia, Cushing's syndrome, Cushing's disease, etc., is also termed a “comorbidity”.)
# [5] = Group 1 (100-200 mg/day, 12 weeks)
# [6] = Group 2 (250-400 mg/day, 16 weeks)
# [7] = mITT, Group 1 (100-200 mg/day, 12 weeks)
# [8] = mITT, Group 2 (250-400 mg/day, 16 weeks)
# [9] = mPP, Group 1 (100-200 mg/day, 12 weeks)
# [10] = mPP, Group 2 (250-400 mg/day, 16 weeks)
compound,measurement,setting,value
"Cn1cc(S(=O)(=O)N2CCC3=Cc4c(cnn4-c4ccc(F)cc4)C[C@]3(C(=O)c3cc(C(F)(F)F)ccn3)C2)cn1 [relacorilant, (R)-(1-(4-fluorophenyl)-6-((1-methyl-1H-pyrazol-4-yl)sulfonyl)-4,4a,5,6,7,8-hexahydro-1H-pyrazolo[3,4-g]isoquinolin-4a-yl) (4-(trifluoromethyl)pyridin-2-yl)methanone]",binding to the progesterone receptor,progesterone receptor,lack of binding to the progesterone receptor
same,progesterone receptor affinity,progesterone receptor; evidence from Cushing's syndrome patient study,no evidence of relacorilant having any progesterone receptor affinity
same,ALT (SGPT) mean change from Baseline to Last Observed,[1]; [5],−7.88 U/L
same,AST (SGOT) mean change from Baseline to Last Observed,[1]; [5],−2.71 U/L
same,ALT (SGPT) mean change from Baseline to Last Observed,[1]; [6],−13.35 U/L
same,AST (SGOT) mean change from Baseline to Last Observed,[1]; [6],−7.31 U/L
same,ALT (SGPT) mean change from Baseline to Last Observed,[1]; Overall,−10.62 U/L
same,AST (SGOT) mean change from Baseline to Last Observed,[1]; Overall,−4.94 U/L
same,tolerability of 14 days of dosing,"[2]; human subjects, 14 days at 50 mg, 150 mg and 250 mg",well-tolerated
same,achievement of steady state levels,"[2]; human volunteers, daily dosing",≤ 7 days
same,tolerability of single doses,"[2]; human, in vivo",well-tolerated
same,platelet count,"[2]; some healthy subjects, non-dose-dependent, resolved by study end",transient reduction in platelet count
same,adverse events at 500 mg,[2]; some subjects who received 500-mg relacorilant,(non-serious) musculoskeletal adverse events
same,adverse events with repeat doses,"[2]; some subjects, repeat doses up to 250 mg",mild to moderate musculoskeletal AEs
same,Serμm Bone Alkaline Phosphatase mean change from Baseline to Last Observed,[3]; [7],1.82
same,Serμm Osteocalcin mean change from Baseline to Last Observed,[3]; [7],4.57 µg/L
same,Urinary NTx mean change from Baseline to Last Observed,[3]; [7],2.21 nmolBCE/mmol
same,Serμm Bone Alkaline Phosphatase mean change from Baseline to Last Observed,[3]; [8],−1.09
same,Serμm Osteocalcin mean change from Baseline to Last Observed,[3]; [8],1.33 µg/L
same,Urinary NTx mean change from Baseline to Last Observed,[3]; [8],0.63 nmolBCE/mmol
same,Serμm Bone Alkaline Phosphatase mean change from Baseline to Last Observed,"[3]; mITT, Overall",0.41
same,Serμm Osteocalcin mean change from Baseline to Last Observed,"[3]; mITT, Overall",3 µg/L
same,Urinary NTx mean change from Baseline to Last Observed,"[3]; mITT, Overall",1.37 nmolBCE/mmol
same,Serμm Bone Alkaline Phosphatase mean change from Baseline to Last Observed,[3]; [9],1.82
same,Serμm Osteocalcin mean change from Baseline to Last Observed,[3]; [9],4.68 µg/L
same,Urinary NTx mean change from Baseline to Last Observed,[3]; [9],2.21 nmolBCE/mmol
same,Serμm Bone Alkaline Phosphatase mean change from Baseline to Last Observed,[3]; [10],−1.09
same,Serμm Osteocalcin mean change from Baseline to Last Observed,[3]; [10],1.33 µg/L
same,Urinary NTx mean change from Baseline to Last Observed,[3]; [10],0.63 nmolBCE/mmol
same,Serμm Bone Alkaline Phosphatase mean change from Baseline to Last Observed,"[3]; mPP, Overall",0.41
same,Serμm Osteocalcin mean change from Baseline to Last Observed,"[3]; mPP, Overall",3.06 µg/L
same,Urinary NTx mean change from Baseline to Last Observed,"[3]; mPP, Overall",1.37 nmolBCE/mmol
same,reduction of the effects of excess cortisol,[4]; Cushing's syndrome patients,effective in reducing many of the effects of excess cortisol
same,time to improvement in hyperglycaemia and hypertension,[4]; after achieving a therapeutic dose,within two weeks
same,clinical effect on hyperglycemia and hypertension,[4]; dosages up to 400 mg/day,clinical improvement in hyperglycemia and hypertension
same,"secondary endpoints: hypercoagulopathy, liver function, serum osteocalcin, cognitive function, depression, quality of life",[4]; high-dose group,statistically significant improvements
same,efficacy relative to previous metyrapone therapy (primary and secondary endpoints),[4]; two patients treated previously with metyrapone,higher efficacy
